{
  "source": "patent US20170209447A1",
  "about": "“Use of PNP Inhibitor to Treat Relapse of Malignancy after Hematopoietic Stem Cell Transplant” (Nitor Therapeutics, priority 2014, published 2017)",
  "key": {"[1]": {"molecular_target": "T1, human TLR9 (Homo sapiens, UniProt Q9NR96)", "T1 construct": "expressed in transfected cells; host or cells: HEK293", "T1 sequence (Q9NR96 26-1032)": "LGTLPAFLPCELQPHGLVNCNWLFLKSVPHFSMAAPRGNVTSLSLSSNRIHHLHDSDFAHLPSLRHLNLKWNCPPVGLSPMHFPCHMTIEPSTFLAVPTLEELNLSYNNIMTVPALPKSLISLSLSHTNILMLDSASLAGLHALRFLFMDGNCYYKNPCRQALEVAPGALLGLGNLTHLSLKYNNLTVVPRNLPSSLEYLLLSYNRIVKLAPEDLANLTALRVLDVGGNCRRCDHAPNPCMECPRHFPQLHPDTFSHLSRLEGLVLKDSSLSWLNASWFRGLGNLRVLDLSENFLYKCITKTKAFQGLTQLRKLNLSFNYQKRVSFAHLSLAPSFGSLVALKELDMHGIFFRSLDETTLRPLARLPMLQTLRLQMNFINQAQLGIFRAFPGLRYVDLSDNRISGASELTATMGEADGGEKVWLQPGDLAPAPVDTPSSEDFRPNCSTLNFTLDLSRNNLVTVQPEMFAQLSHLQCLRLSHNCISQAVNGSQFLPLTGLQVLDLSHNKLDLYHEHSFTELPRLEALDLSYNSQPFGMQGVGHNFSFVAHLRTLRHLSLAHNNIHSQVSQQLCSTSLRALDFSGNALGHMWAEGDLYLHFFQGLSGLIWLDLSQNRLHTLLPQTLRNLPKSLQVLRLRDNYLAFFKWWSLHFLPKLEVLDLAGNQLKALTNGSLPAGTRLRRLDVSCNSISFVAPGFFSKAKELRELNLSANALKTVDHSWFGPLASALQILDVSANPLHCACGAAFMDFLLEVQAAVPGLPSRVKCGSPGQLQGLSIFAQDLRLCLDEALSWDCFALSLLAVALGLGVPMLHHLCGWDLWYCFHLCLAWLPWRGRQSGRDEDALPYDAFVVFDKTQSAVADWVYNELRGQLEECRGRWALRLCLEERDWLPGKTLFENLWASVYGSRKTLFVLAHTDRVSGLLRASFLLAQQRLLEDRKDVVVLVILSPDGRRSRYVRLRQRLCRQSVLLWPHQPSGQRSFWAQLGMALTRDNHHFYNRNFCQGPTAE", "assay": "TLR ligand screening: NF-κB SEAP reporter in HEK293 cells expressing TLR9", "assay_type": "cell-based", "settings": "one concentration: NTR001 10 uM, Inosine 100 uM, triplicate, FIG. 2", "procedure": "(§1) Toll-Like Receptor (TLR) Ligand Screening: In-vitro Activity of the PNPi, Guanosine and Inosine on Seven Different Human TLRs (TLR2, 3, 4, 5, 7, 8 and 9) as a Potential Agonist.\n(§2) Method: TLR stimulation is tested by assessing NF-KB activation in HEK293 cells expressing a given TLR. The Secreted Embryonic Alkaline Phosphatase (SEAP) reporter is under the control of a promoter inducible by the transcription factor NF-κB.\n(§3) This reporter gene allows the monitoring of signaling through the TLR, based on the activation of NF-κB. The compounds are evaluated at one concentration and compared to control ligands. This step is performed in triplicate."}, "[2]": {"molecular_target": "T2, human TLR3 (Homo sapiens, UniProt O15455)", "T2 construct": "expressed in transfected cells; host or cells: HEK293", "T2 sequence (O15455 24-904)": "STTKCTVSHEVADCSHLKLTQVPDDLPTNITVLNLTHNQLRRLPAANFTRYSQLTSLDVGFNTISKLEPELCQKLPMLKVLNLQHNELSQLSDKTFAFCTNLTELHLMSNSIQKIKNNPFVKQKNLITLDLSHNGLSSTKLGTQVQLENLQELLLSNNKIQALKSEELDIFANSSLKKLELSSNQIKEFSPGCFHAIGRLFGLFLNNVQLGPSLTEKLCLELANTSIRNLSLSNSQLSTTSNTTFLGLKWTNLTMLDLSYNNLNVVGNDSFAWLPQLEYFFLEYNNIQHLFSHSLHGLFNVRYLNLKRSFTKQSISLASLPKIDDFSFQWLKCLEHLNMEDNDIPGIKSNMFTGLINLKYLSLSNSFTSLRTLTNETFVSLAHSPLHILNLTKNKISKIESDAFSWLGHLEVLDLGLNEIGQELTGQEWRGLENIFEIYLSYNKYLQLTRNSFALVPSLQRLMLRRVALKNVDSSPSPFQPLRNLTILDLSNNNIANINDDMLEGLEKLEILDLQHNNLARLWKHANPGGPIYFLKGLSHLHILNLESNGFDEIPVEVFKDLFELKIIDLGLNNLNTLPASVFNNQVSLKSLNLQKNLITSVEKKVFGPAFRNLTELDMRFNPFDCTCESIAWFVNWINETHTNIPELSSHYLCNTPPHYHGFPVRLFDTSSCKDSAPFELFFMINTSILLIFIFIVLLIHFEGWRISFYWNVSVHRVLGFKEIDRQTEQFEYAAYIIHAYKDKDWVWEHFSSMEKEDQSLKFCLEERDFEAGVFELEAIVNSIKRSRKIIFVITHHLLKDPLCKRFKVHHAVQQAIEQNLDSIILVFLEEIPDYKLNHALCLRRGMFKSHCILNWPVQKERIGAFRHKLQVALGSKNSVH", "assay": "TLR ligand screening: NF-κB SEAP reporter in HEK293 cells expressing TLR3", "assay_type": "cell-based", "settings": "one concentration: NTR001 10 uM, Inosine 100 uM, triplicate, FIG. 2", "procedure": "as §1, §2, §3"}, "[3]": {"system": "B16 tumors", "settings": "NTR001 60 mg/kg PO; CTLA4-Ab 100, 50, 50 ug IP; days 0, 3 and 6; FIG. 11"}, "[4]": {"system": "L. monocytogenes (ATCC Strain35152, hemolytic substrain)", "settings": "30 mg/kg PO or IP, or 2 mg/kg drinking water; 1×10^6 CFU i.v.; FIGS. 7 and 9"}, "[5]": {"system": "B16 tumors", "assay": "PNPi as anticancer agent in mouse melanoma model", "assay_type": "in vivo, C57BL/6 mice", "procedure": "Evaluation of PNPi as Anticancer Agent in Mouse Melanoma Model.\nTreatment with the NTR001 was initiated on day 6 after injection of tumor cells. Tumor volume and survival were recorded every 3-4 days."}, "[6]": {"system": "tetanus toxoid vaccine", "assay": "PNPi as adjuvant in tetanus toxoid vaccine efficacy study (tetanus toxoid mouse model)", "assay_type": "in vivo, mice", "settings": "compared to vehicle treated group", "procedure": "This Example Evaluates PNPi as an Adjuvant in Tetanus Toxoid Vaccine Efficacy Study.\nMethod: Tetanus toxoid (TT) was used to vaccinate mice thrice, two weeks apart. Mice were treated by oral administration of compounds NTR001 and NTR002 and serum was collected at various time points for antibody titer and interferon-g analysis. Mice in Groups 2-6 (Table 2) are vaccinated subcutaneously with 0.1 ml tetanus toxoid vaccine on DAYS 0, 14 and 28. Mice in Group 1 (Table 1) received no vaccine. Antibody titers for DAYS 38 are determined by ELISA using tetanus toxoid coated microtiter plates and anti-mouse conjugate. Sera from DAY 30 are assayed by ELISA for interferon-g."}},
  "note": "Like-named read-outs stand apart in the source and are kept apart here.",
  "data": [
    {"compound": "OC[C@H]1O[C@@H](n2cnc3c(O)ncnc32)[C@H](O)[C@@H]1O", "note": "[Inosine, inosine]", "values": [
      {"measurement": "stimulatory effect on human TLR9 (NF-κB activation)", "setting": "[1]", "result": "do not exhibit a stimulatory effect"},
      {"measurement": "stimulatory effect on human TLR3 (NF-κB activation)", "setting": "[2]", "result": "do not exhibit a stimulatory effect"}
    ]},
    {"compound": "O=c1[nH]cnc2c([C@@H]3N[C@H](CO)[C@@H](O)[C@H]3O)c[nH]c12", "note": "[NTR001, 7-[(2S,3S,4R,5R)-3,4-dihydroxy-5-(hydroxymethyl)-2-pyrrolidinyl]-1,5-dihyro-4-H-pyrrolo-[3,2-d]pyrimidin-4-one]", "values": [
      {"measurement": "tumor volume", "setting": "[3]", "result": "decrease in tumor volume but was not statistically significant"},
      {"measurement": "stimulatory effect on human TLR9 (NF-κB activation)", "setting": "[1]", "result": "do not exhibit a stimulatory effect"},
      {"measurement": "weight loss", "setting": "[4]", "result": "significant decrease"},
      {"measurement": "stimulatory effect on human TLR3 (NF-κB activation)", "setting": "[2]", "result": "do not exhibit a stimulatory effect"},
      {"measurement": "survival", "setting": "[5]; NTR001 as single agent (30 mg/kg PO week on/off; 5 mg/kg drinking water 28 days), FIG. 6", "result": "0-20%"},
      {"measurement": "tumor volume", "setting": "[5]; NTR001 treatment initiated day 6 after tumor cells, 30 mg/kg PO week on/off or 5 mg/kg drinking water, FIG. 5", "result": "significant decrease"},
      {"measurement": "serum interferon-g levels", "setting": "[6]; day 30, ELISA, high dose group 60 mg/kg p.o., FIG. 4", "result": "elevated"},
      {"measurement": "serum tetanus toxoid antibody titers", "setting": "[6]; day 38, ELISA, p.o. 30 mg/kg (6 days of treatment) and 60 mg/kg (3 days of treatment), FIG. 3", "result": "significantly elevated"}
    ]}
  ]
}
